Assay results from patent US9255100B2 (BAYER INTELLECTUAL PROPERTY GMBH, priority 2010, dated 2016).

Each molecule was assayed against T1, N-terminally GST-tagged human full length recombinant Mps-1 kinase (Homo sapiens, UniProt P33981) (assay: Mps-1 kinase assay (TR-FRET)). Conditions: Mps1 IC50 [nM], 10 μM ATP, 1 μM peptide substrate, 60 min at 22° C.
T1 construct: N-terminally GST-tagged human full length recombinant Mps-1 kinase; purchased Invitrogen, Karslruhe, Germany PV4071
T1 sequence (P33981 1-857): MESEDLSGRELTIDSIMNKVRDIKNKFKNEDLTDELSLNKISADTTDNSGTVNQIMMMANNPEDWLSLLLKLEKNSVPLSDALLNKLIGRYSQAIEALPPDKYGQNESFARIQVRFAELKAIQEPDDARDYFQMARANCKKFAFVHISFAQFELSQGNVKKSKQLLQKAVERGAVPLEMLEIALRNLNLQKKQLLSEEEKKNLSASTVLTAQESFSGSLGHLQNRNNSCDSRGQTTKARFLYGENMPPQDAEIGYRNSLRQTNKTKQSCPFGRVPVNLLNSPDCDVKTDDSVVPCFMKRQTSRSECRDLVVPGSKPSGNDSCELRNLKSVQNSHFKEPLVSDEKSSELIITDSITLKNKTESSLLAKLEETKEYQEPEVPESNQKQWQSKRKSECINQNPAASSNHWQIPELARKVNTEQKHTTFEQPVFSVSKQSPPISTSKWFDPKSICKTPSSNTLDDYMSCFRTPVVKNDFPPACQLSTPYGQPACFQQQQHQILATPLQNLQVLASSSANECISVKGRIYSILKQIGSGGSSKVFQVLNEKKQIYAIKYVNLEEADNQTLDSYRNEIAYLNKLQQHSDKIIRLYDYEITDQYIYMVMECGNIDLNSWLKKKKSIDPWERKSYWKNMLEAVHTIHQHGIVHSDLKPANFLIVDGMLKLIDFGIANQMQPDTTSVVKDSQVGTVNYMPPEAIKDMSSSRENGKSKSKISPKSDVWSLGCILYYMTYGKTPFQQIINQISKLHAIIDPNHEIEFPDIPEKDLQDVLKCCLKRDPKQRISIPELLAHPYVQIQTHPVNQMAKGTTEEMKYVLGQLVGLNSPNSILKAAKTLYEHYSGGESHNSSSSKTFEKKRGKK
Format: biochemical
Method in brief: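 Compounds were tested against recombinant full-length Mps-1 bearing an N-terminal GST tag, about 1 nM final, with a biotinylated amide-capped peptide as substrate. Detection reagents were then bound for 1 h at 22° C and the product read by TR-FRET.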

| IC50 | SMILES |
| --- | --- |
| < 0.1 nM | Cc1cc(-c2cnc3c(NCCC(F)(F)F)cc(Sc4ccccc4O)nn23)ccc1C(=O)NC1CC1 [Example 224, N-cyclopropyl-4-{6-[(2-hydroxyphenyl)sulfanyl]-8-[(3,3,3-trifluoropropyl)amino]imidazo[1,2-b]pyridazin-3-yl}-2-methylbenzamide] |
| 0.1 nM | Cc1ccc(O)cc1Nc1cc(NCCC(F)(F)F)c2ncc(-c3ccc(C(=O)NC4CC4)c(C)c3)n2n1 [Example 443, N-cyclopropyl-4-{6-[(5-hydroxy-2-methylphenyl)amino]-8-[(3,3,3-trifluoropropyl)amino]imidazo[1,2-b]pyridazin-3-yl}-2-methylbenzamide] |
| < 0.1 nM | Cc1cc(-c2cnc3c(NCCC(F)(F)F)cc(Sc4cccc(O)c4)nn23)ccc1C(=O)NC1CC1 [Example 238, N-cyclopropyl-4-{6-[(3-hydroxyphenyl)sulfanyl]-8-[(3,3,3-trifluoropropyl)amino]imidazo[1,2-b]pyridazin-3-yl}-2-methylbenzamide] |
| < 0.7 nM | O=C(NC1CC1)c1ccc(-c2cnc3c(NCCC(F)(F)F)cc(Sc4ccccc4)nn23)c(O)c1 [Example 74, N-cyclopropyl-3-hydroxy-4-{6-(phenylsulfanyl)-8-[(3,3,3-trifluoropropyl)amino]imidazo[1,2-b]pyridazin-3-yl}benzamide] |
| < 1 nM | CNC(=O)c1ccc(-c2cnc3c(NCCOC)cc(Oc4cccc(F)c4F)nn23)cc1C [Example 581, 4-{6-(2,3-difluoro-phenoxy)-8-[(2-methoxyethyl)a-mino]imidazo[1,2-b]pyridazin-3-yl}-N,2-dimethylbenzamide] |
| 0.1 nM | Cc1cc(-c2cnc3c(NCCC(F)(F)F)cc(Nc4ccc(F)nc4)nn23)ccc1C(=O)NC1CC1 [Example 440, N-cyclopropyl-4-{6-[(6-fluoropyridin-3-yl)-amino]-8-[(3,3,3-trifluoropropyl)amino]imidazo[1,2-b]pyridazin-3-yl}-2-methylbenzamide] |
| 20.5 nM | Cc1cc(-c2cnc3c(NCC(C)(C)N)cc(-c4ccnn4C)nn23)ccc1C(=O)NC1CC1 [Example 58, 4-{8-[(2-Amino-2-methylpropyl)amino]-6-(1-methyl-1H-pyrazol-5-yl)imidazo[1,2-b]pyridazin-3-yl}-N-cyclopropyl-2-methylbenzamide] |
| 3.6 nM | Cc1cc(-c2cnc3c(NCC(C)(C)O)cc(-c4cccc(CO)c4)nn23)ccc1C(=O)NC1CC1 [Example 153, N-cyclopropyl-4-{6-[3-(hydroxymethyl)phenyl]-8-[(2-hydroxy-2-methylpropyl)amino]imidazo[1,2-b]pyridazin-3-yl}-2-methylbenzamide] |
| 1.5 nM | Cc1cc(-c2cnc3c(NCC(C)C)cc(-c4ccnn4C)nn23)ccc1C(=O)NC1CC1 [Example 202, N-cyclopropyl-2-methyl-4-{8-[(2-methylpropyl)amino]-6-(1-methyl-1H-pyrazol-5-yl)imidazo[1,2-b]pyridazin-3-yl}benzamide] |
| 0.2 nM | CCNC(=O)c1ccc(-c2cnc3c(NCCC(F)(F)F)cc(Oc4cccc(F)c4)nn23)cc1C [Example 552, N-ethyl-4-{6-(3-fluorophenoxy)-8-[(3,3,3-trifluoropropyl)amino]imidazo[1,2-b]pyridazin-3-yl}-2-methylbenzamide] |
| 1 nM | Cc1cc(F)ccc1Sc1cc(NCC(C)(C)O)c2ncc(-c3ccc(C(=O)NC4CC4)c(C)c3)n2n1 [Example 69, N-cyclopropyl-4-{6-[(4-fluoro-2-methylphenyl)sulfanyl]-8-[(2-hydroxy-2-methylpropyl)amino]imidazo[1,2-b]pyridazin-3-yl}-2-methylbenzamide] |
| 0.3 nM | Cc1cc(-c2cnc3c(NCCCC(F)(F)F)cc(Nc4cccc(F)c4F)nn23)ccc1C(=O)NC1CC1 [Example 450, N-cyclopropyl-4-{6-[(2,3-difluorophenyl)amino]-8-[(4,4,4-trifluorobutyl)amino]imidazo[1,2-b]pyridazin-3-yl}-2-methylbenzamide] |
| 1 nM | Cc1cc(-c2cnc3c(NCC(C)(C)O)cc(Sc4cccc(OC(C)C)c4)nn23)ccc1C(=O)NC1CC1 [Example 271] |
| 1.1 nM | Cn1nccc1-c1cc(NCCC(F)(F)F)c2ncc(-c3ccc(C(=S)NC4CC4)cc3)n2n1 [Example 45, N-cyclopropyl-4-{6-(1-methyl-1H-pyrazol-5-yl)-8-[(3,3,3-trifluoropropyl)amino]imidazo[1,2-b]pyridazin-3-yl}benzenecarbothioamide] |
| < 1 nM | CCNC(=O)c1ccc(-c2cnc3c(NCCC(F)(F)F)cc(Oc4ccc(OC)c(F)c4)nn23)cc1C [Example 604, N-ethyl-4-{6-(3-fluoro-4-methoxyphenoxy)-8-[(3,3,3-trifluoropropyl)a-mino]imidazo[1,2-b]pyridazin-3-yl}-2-methylbenzamide] |
| 0.2 nM | Cc1cc(-c2cnc3c(NCC(C)(C)O)cc(Sc4cccc(F)c4)nn23)ccc1C(=O)NC1CC1 [Example 89, N-cyclopropyl-4-{6-[(3-fluorophenyl)sulfanyl]-8-[(2-hydroxy-2-methylpropyl)amino]imidazo[1,2-b]pyridazin-3-yl}-2-methylbenzamide] |
| 327 nM | CNC(=O)c1ccc(-c2cnc3c(NCC(C)C)cc(Cl)nn23)cc1Cl [Example 180, 2-Chloro-4-{6-chloro-8-[(2-methylpropyl)amino]imidazo[1,2-b]pyridazin-3-yl}-N-methylbenzamide] |
| 0.4 nM | Cc1cc(-c2cnc3c(NCCC(F)(F)F)cc(Oc4ccccc4F)nn23)ccc1C(=O)NC1CC1 [Example 473, N-cyclopropyl-4-{6-(2-fluorophenoxy)-8-[(3,3,3-trifluoropropyl)amino]imidazo[1,2-b]pyridazin-3-yl}-2-methyl-benzamide] |
| 2.9 nM | CCNC(=O)c1ccc(-c2cnc3c(NCCOC)cc(Oc4cc(F)ccc4C)nn23)cc1C [Example 609, N-ethyl-4-{6-(5-fluoro-2-methylphenoxy)-8-[(2-methoxyethyl)a-mino]imidazo[1,2-b]pyridazin-3-yl}-2-methylbenzamide] |
| 0.5 nM | Cc1cc(-c2cnc3c(NCC(C)(C)O)cc(Sc4cccs4)nn23)ccc1C(=O)NC1CC1 [Example 261, N-cyclopropyl-4-{8-[(2-hydroxy-2-methylpropyl)amino]-6-(2-thienylsulfanyl)imidazo[1,2-b]pyridazin-3-yl}-2-methylbenzamide] |
| 0.3 nM | Cc1cc(-c2cnc3c(NCC(C)(C)N4CCOCC4)cc(Oc4cccc(F)c4)nn23)ccc1C(=O)NC1CC1 [Example 498, N-cyclopropyl-4-[6-(3-fluoro-phenoxy)-8-{[2-methyl-2-(morpholin-4-yl)propyl]amino}imidazo[1,2-b]pyridazin-3-yl]-2-methylbenzamide] |
| 23 nM | Cc1cc(-c2cnc3c(NCC4CC(=O)N(C)C4)cc(-c4ccccc4CO)nn23)ccc1C(=O)NC1CC1 (stereo not drawn) [Example 344, N-cyclopropyl-4-(6-[2-(hydroxy-methyl)phenyl]-8-{[(1-methyl-5-oxo-pyrrolidin-3-yl)methyl]amino}imidazo[1,2-b]pyridazin-3-yl)-2-methyl-benzamide] |
| 3.5 nM | Cc1cc(-c2cnc3c(NCCC(F)(F)F)cc(Sc4nncn4C)nn23)ccc1C(=O)NC1CC1 [Example 419, N-cyclopropyl-2-methyl-4-{6-[(4-methyl-4H-1,2,4-triazol-3-yl)sulfanyl]-8-[(3,3,3-trifluoropropyl)amino]imidazo[1,2-b]pyridazin-3-yl}benzamide] |
| 0.6 nM | C=C(c1ccccc1)c1cc(NCCC(F)(F)F)c2ncc(-c3ccc(C(=O)NC4CC4)c(C)c3)n2n1 [Example 482, N-cyclopropyl-2-methyl-4-{6-(1-phenylethenyl)-8-[(3,3,3-trifluoropropyl)amino]imidazo[1,2-b]pyridazin-3-yl}benzamide] |
| 6.2 nM | Cc1cc(-c2cnc3c(NCC(C)(C)O)cc(-c4cccn4C)nn23)ccc1C(=O)NC1CC1 [Example 161, N-cyclopropyl-4-{8-[(2-hydroxy-2-methylpropyl)amino]-6-(1-methyl-1H-pyrrol-2-yl)imidazo[1,2-b]pyridazin-3-yl}-2-methylbenzamide] |
| 0.3 nM | Cc1cc(-c2cnc3c(NCC(C)(C)O)cc(Oc4ccccc4F)nn23)ccc1C(=O)NC1CC1 [Example 93, N-cyclopropyl-4-{6-(2-fluorophenoxy)-8-[(2-hydroxy-2-methylpropyl)amino]imidazo[1,2-b]pyridazin-3-yl}-2-methylbenzamide] |
| 5.3 nM | Cc1cc(-c2cnc3c(NCC(C)(C)O)cc(C4=CCOCC4)nn23)ccc1C(=O)NC1CC1 [Example 166, N-cyclopropyl-4-{6-(3,6-dihydro-2H-pyran-4-yl)-8-[(2-hydroxy-2-methylpropyl)amino]imidazo[1,2-b]pyridazin-3-yl}-2-methylbenzamide] |
